Reference: US12692478B2, “Populations of enriched regulatory T cells and methods for producing same” (Cellenkos Inc., priority 2021, dated 2026)

Key:
[1] = test system: SLE-PBMC; assay: IFN-gamma release by pathogenic lupus cells (SLE-PBMC); type: cell-based, human; details: control, non-specific inflammatory stimulus
Description: FIG. 32 is a bar graph depicting the amount of interferon (IFN)—gamma released by pathogenic lupus cells in the presence or absence of combinations of (1) activated Treg cells; (2) ruxolitinib; and/or (3) camptothecin. Rux=ruxolitinib. SLE-PBMC=peripheral blood mononuclear cells derived from subjects with systemic lupus erythematosus. D6=Day 6.

[2] = test system: graft versus host disease (GVHD); details: mouse, in vivo
Description: FIG. 33 depicts a schematic for treatment of a xenogeneic mouse graft versus host disease (GVHD) model with a ruxolitinib and activated Treg cells regimen. PBMC=peripheral blood mononuclear cells.
A xenogeneic mouse graft versus host disease (GVHD) model was treated with a ruxolitinib and activated CB Treg cells regimen, as depicted in FIG. 33. NSG mice underwent sublethal irradiation on day −1 followed by injection of 1×10^7 donor peripheral blood (PB) mononuclear cells (MNCs) on day 0. Oral ruxolitinib at 1 mg daily was fed continuously to the mice in the presence or absence of 1×10^7 CB Treg cells, tagged with CellTrace™ Violet dye (ThermoFisher), administered on days +4, +7, +11, +18. Mice were followed every other day for weight, GVHD score and survival. Serial blood draws were performed to analyze for cell compartment and cytokine assays.

SMILES	IFNγ secretion from CB Treg cells [1]	CB Treg persistence [2]
CC[C@@]1(O)C(=O)OCc2c1cc1n(c2=O)Cc2cc3ccccc3nc2-1 [Camptothecin]	does not increase	–
N#CC[C@H](C1CCCC1)n1cc(-c2ncnc3[nH]ccc23)cn1 [ruxolitinib]	–	improved CB Treg persistence
